In brackets after ≈: the same amount, converted by molar mass.
Experiments:
Test in all cases: In-vitro test, inhibitory concentration by dilution series
Format in all cases: cell-based
[1] = test system: Serratia marcescens SG 621; conditions: SG621; VIII = Serratia marcescens SG 621; step = concentration with no visible growth; read-out: Hemmkonzentration nach Verdünnung (Verdünnungsreihe) (converted)
Description: (§1) Die antibiotische Wirksamkeit erfindungsgemäßer Verbindungen wurde in der üblichen Weise durch Ermittlung der Hemmkonzentrationen nach Verdünnung ermittelt.
(§2) Die erhaltenen Ergebnisse sind in der nachstehenden Tabelle zusammengefaßt.

[2] = test system: Citrobacter freudii; conditions: XIV = Citrobacter freudii, Laborstämme; step = concentration with no visible growth; read-out: Hemmkonzentration nach Verdünnung (Verdünnungsreihe) (converted)
Description: as §1, §2

[3] = test system: Staphylococcus epidermidis; conditions: X = Staphylococcus epidermidis, Laborstämme; step = concentration with no visible growth; read-out: Hemmkonzentration nach Verdünnung (Verdünnungsreihe) (converted)
Description: as §1, §2

[4] = test system: Pseudomonas aeruginosa NCTC 10701; conditions: NCTC10701; IV = Pseudomonas aeruginosa NCTC 10701; step = concentration with no visible growth; read-out: Hemmkonzentration nach Verdünnung (Verdünnungsreihe) (converted)
Description: as §1, §2

[5] = test system: Staphylococcus aureus SG 511; conditions: SG511; II = Staphylococcus aureus SG 511; step = concentration with no visible growth; read-out: Hemmkonzentration nach Verdünnung (Verdünnungsreihe) (converted)
Description: as §1, §2

[6] = test system: Enterokokken; conditions: XI = Enterokokken, Laborstämme; step = concentration with no visible growth; read-out: Hemmkonzentration nach Verdünnung (Verdünnungsreihe) (converted)
Description: as §1, §2

[7] = test system: Escherichia coli; conditions: XII = Escherichia coli, Laborstämme; step = concentration with no visible growth; read-out: Hemmkonzentration nach Verdünnung (Verdünnungsreihe) (converted)
Description: as §1, §2

[8] = test system: Salmonella gallinarium ATCC 9184; conditions: ATCC9184; VI = Salmonella gallinarium ATCC 9184; step = concentration with no visible growth; read-out: Hemmkonzentration nach Verdünnung (Verdünnungsreihe) (converted)
Description: as §1, §2

[9] = test system: Proteus vulgaris OX 19; conditions: OX19; III = Proteus vulgaris OX 19; step = concentration with no visible growth; read-out: Hemmkonzentration nach Verdünnung (Verdünnungsreihe) (converted)
Description: as §1, §2

[10] = test system: Bacillus subtilis SG 119; conditions: SG119; I = Bacillus subtilis SG 119; step = concentration with no visible growth; read-out: Hemmkonzentration nach Verdünnung (Verdünnungsreihe) (converted)
Description: as §1, §2

[11] = test system: Pseudomonas aeruginosa SG 137; conditions: SG137; V = Pseudomonas aeruginosa SG 137; step = concentration with no visible growth; read-out: Hemmkonzentration nach Verdünnung (Verdünnungsreihe) (converted)
Description: as §1, §2

[12] = test system: Klebsiella pneumoniae SG 117; conditions: SG117; VII = Klebsiella pneumoniae SG 117; step = concentration with no visible growth; read-out: Hemmkonzentration nach Verdünnung (Verdünnungsreihe) (converted)
Description: as §1, §2

[13] = test system: Staphylococcus aureus; conditions: IX = Staphylococcus aureus, Laborstämme; step = concentration with no visible growth; read-out: Hemmkonzentration nach Verdünnung (Verdünnungsreihe) (converted)
Description: as §1, §2

[14] = test system: Enterobacter cloacae; conditions: XIII = Enterobacter cloacae, Laborstämme; step = concentration with no visible growth; read-out: Hemmkonzentration nach Verdünnung (Verdünnungsreihe) (converted)
Description: as §1, §2

## CCc1cc2c(OC(=O)OCC(C)C)c(C(=O)N[C@@H](C(=O)N[C@@H]3C(=O)N4[C@@H]3SC(C)(C)[C@@H]4C(=O)O)c3ccccc3)cnc2cc1COC(C)CC (stereo partly drawn) [Beisp. 22, 6-[D-(-)-α-([4'-Isobutoxycarbonyloxy-6'-ethyl-7'-s-butoxymethylen-chinolinoyl-3']-carboxamido)-α-phenylacetamido]-penicillansäure-Natriumsalz]
[1]
  MIC: 1.56 µM (≈ 1.15 µg/mL)
[2]
  MIC: 3.12 µM (≈ 2.29 µg/mL)
[3]
  MIC: 12.5 µM (≈ 9.19 µg/mL)
[4]
  MIC: 0.78 µM (≈ 0.573 µg/mL)
[5]
  MIC: 1.56 µM (≈ 1.15 µg/mL)
[6]
  MIC: 12.5 µM (≈ 9.19 µg/mL)
[7]
  MIC: 1.56 µM (≈ 1.15 µg/mL)
[8]
  MIC: 1.56 µM (≈ 1.15 µg/mL)
[9]
  MIC: 0.39 µM (≈ 0.287 µg/mL)
[10]
  MIC: 1.56 µM (≈ 1.15 µg/mL)
[11]
  MIC: 12.5 µM (≈ 9.19 µg/mL)
[12]
  MIC: 0.78 µM (≈ 0.573 µg/mL)
[13]
  MIC: 25 µM (≈ 18.4 µg/mL)
[14]
  MIC: 6.25 µM (≈ 4.59 µg/mL)

— patent publication EP0496332A1, “Alpha-aminoquinolinoyl-[3]-penicillines, process for their preparation and their use as antibacterial agents” (ARZNEIMITTELWERK DRESDEN GmbH, priority 1991, dated 1992)
